Measurements as given in patent US5760036A, “Aminediol protease inhibitors” (E. R. Squibb & Sons, Inc., priority 1995, dated 1998).
Like-named read-outs stand apart in the source and are kept apart here.

Key:
[1] = tested on: RF strain of HIV (CEM-SS cells); assay: Cell Culture Anti-HIV Activity (cell viability, formazan); assay type: cell-based; conditions: CEM-SS cells, RF strain of HIV, multiplicity of infection 0.04, 6 days at 37° C., 450 nm, read-out: HIV (CEM Cells) IC50
In short: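 Half-log compound dilutions added to CEM-SS cells (5000/well) carrying HIV RF (MOI 0.04), 6 days, 37° C. Cell protection measured as formazan from tetrazolium, A450. IC50: drug level restoring infected-cell formazan to 50% of the uninfected untreated control.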

HIV protease = target: T1, HIV protease (Human immunodeficiency virus type 1 group M subtype B, UniProt P04585); assay: HIV Protease Assay; assay type: biochemical
T1 construct: and purified protease
In short: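 At a single final concentration of 10 μM (4% DMSO), inhibitors were added to a 30-minute, 37° C reaction of purified enzyme with 450 μM H2N-Val-Ser-Gln-Asn-(β-naphthyl-alanine)-Pro-Val-Ile-OH at pH 5.5 (sodium acetate, BSA). Hydrolysis was quantified by reverse-phase HPLC with 220 nm detection after acid quench.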

[2] = pH 5.5, 10 μM inhibitor, 4% DMSO, 450 μM substrate, pH 5.5, 30 minutes at 37° C., RP-HPLC, read-out: HIV Protease % Inhibition at 10 μM
[3] = Human immunodeficiency virus 1, CEM-SS, 144 h

SMILES | IC50 [1] | inhibition at 10 µM (HIV protease; [2]) | IC50 [1, 3] | inhibition at 10 µM (HIV protease; pH 5.5, read-out: HIV Protease % Inhibition at 10 μM)
CC(C)(C)OC(=O)N[C@@H](Cc1ccccc1)[C@H](O)CNC[C@@H](O)[C@H](Cc1ccccc1)NC(=O)C(NC(=O)OCc1ccccc1)C(C)(C)CO (single isomer, unassigned; isomer a) [Compound 308, [1S-[1R*,2S*(2S*,3R*)]]-1-[[[3-[[(1,1-Dimethylethoxy)carbonyl]amino]-2-hydroxy-4-phenylbutyl]amino]-2-hydroxy-1-(phenylmethyl)propyl]amino]carbonyl-2-(hydroxymethyl)-2-methylpropyl] carbamic acid, phenylmethyl ester, isomer A] | 20 nM | 100% |  | 
CC(C)(C)OC(=O)N[C@@H](Cc1ccccc1)[C@H](O)CNC[C@@H](O)[C@H](Cc1ccccc1)NC(=O)OC[C@@H](O)CO [Compound 230, [1S-(1R*,2S*),(R*)]-[Iminobis[2-hydroxy-1-(phenylmethyl)-3,1-propanediyl]]biscarbamic acid, 2,3-dihydroxypropyl 1,1-dimethylethyl ester] |  | 92% | 4900 nM | 
CC(C)(C)OC(=O)N[C@@H](Cc1ccccc1)[C@H](O)CNC[C@@H](O)[C@H](Cc1ccccc1)NC(=O)[C@@](C)(O)C(C)(C)C [Compound 261, [1S-[1R*,2S*[2R*,3R*(R*)]]]-[3-[[3-[(2-Hydroxy-2,3,3-trimethyl-1-oxobutyl)amino]-2-hydroxy-4-phenylbutyl]amino]-2-hydroxy-1--(phenylmethyl)propyl]carbamic acid, 1,1-dimethylethyl ester] |  |  | 1100 nM | 94%
CC(C)(C)OC(=O)N[C@@H](Cc1ccccc1)[C@H](O)CNC[C@@H](O)[C@H](Cc1ccccc1)NC(=O)OC(C)(C)CCO [Compound 169, [1S-(1R*,2S*)]-Iminobis[2-hydroxy-1-(phenylmethyl)-3,1-propanediyl]]biscarbamic acid, 1,1-dimethylethyl-3-hydroxy-1,1-dimethylpropyl ester] |  | 97% | 200 nM | 
CC(C)[C@H](NC(=O)OCc1ccccc1)C(=O)N[C@@H](Cc1ccccc1)[C@H](O)CNC[C@@H](O)[C@H](Cc1ccccc1)N(C)C(=O)OC(C)(C)C [Compound 141, [S-[1R*,2S*(2S*,3R*)]-N-[3-[[3-[[(1,1-Dimethylethoxy)carbonyl]methylamino]-2-hydroxy-4-phenylbutyl]amino]-2-hydroxy-1-(phenylmethyl)propyl]-N^2-[(phenylmethoxy)-carbonyl]-L-valinamide]] |  | 77% | > 2300 nM | 
CC(C)[C@H](NC(=O)N(C)Cc1ccccn1)C(=O)N[C@@H](Cc1ccccc1)[C@H](O)CNC[C@@H](O)[C@H](Cc1ccccc1)NC(=O)OC(C)(C)C [Compound 76, [S-[1R*,2S*(2S*,3R*)]]-N-[3-[[3-[[(1,1-Dimethylethoxy)carbonylamino]-2-hydroxy-4-phenylbutyl]amino]-2-hydroxy-1-(phenylmethyl)propyl]-N^2 [[methyl(2-pyridinyl-methyl)amino]carbonyl]-L-valinamide] |  | 100% | 600 nM | 
CC(C)(C)OC(=O)N[C@@H](Cc1ccccc1)[C@H](O)CNC[C@@H](O)[C@H](Cc1ccccc1)NC(=O)[C@@H](NC(=O)OCc1cc2ccncc2o1)C(C)(C)C [Compound 339, [S-[1R*,2S*(2S*,3R*)]]-[2,2-Dimethyl-1-[[[3-[[3-[[(1,1-dimethylethoxy)carbonyl]amino]-2-hydroxy-4-phenylbutyl]amino]-2-hydroxy-1-(phenylmethyl)-propyl]amino]carbonyl]propyl]carbamic acid, (2-furo[2,3-c]pyridinyl) methyl ester] |  | 99% | 12 nM | 
COc1ccccc1C[C@H](NC(=O)OC(C)(C)C)[C@H](O)CNC[C@@H](O)[C@H](Cc1ccccc1)NC(=O)OC(C)(C)C [Compound 349, [1S-[1R*,2S*(2S*,3R*)]]-[3-[[3-1,1-Dimethylethoxy)-carbonyl]amino]-2-hydroxy-4-(2-methoxyphenyl)butyl]-amino]-2-hydroxy-1-(phenylmethyl)propyl]carbamic acid, 1,1-dimethylethyl ester] |  | 98% | 370 nM | 
